Test results from article PMC10999085, “Synthesis, anticancer evaluation, molecular docking and ADME study of novel pyrido[4ʹ,3ʹ:3,4]pyrazolo[1,5-a]pyrimidines as potential tropomyosin receptor kinase A (TrKA) inhibitors” (BMC Chemistry, 2024).
In brackets after ≈: the same amount, converted by molar mass.

Tests used:
[1] = system: MCF7 cell line; assay: MTT assay, MCF7 cell line; format: cell-based, human; conditions: 24 hr treatment, in % (unit assumed); for Cytotoxicity at 5 µg/l: MCF7, 5 µg/l; for Cytotoxicity at 10 µg/l: MCF7, 10 µg/l; for Cytotoxicity at 20 µg/l: MCF7, 20 µg/l
Procedure: (§1) Determination of the inhibitory effects of compounds on cell growth was performed through the MTT assay. This colorimetric assay is based on the conversion of the yellow tetrazolium bromide (MTT) to a purple formazan derivative by mitochondrial succinate dehydrogenase in viable cells. The protocol was discussed in details in Additional file 1.
(§2) Compounds 1, 4a,b, 7a–c, 7k, l, 9a–c, 14a, 15b, 16a–c were selected to be investigated against three human cancer cell lines MCF7, HepG2 and HCT116 cell lines using MTT assay using doxorubicin as the standard drug. Each point is the mean ± SD (standard deviation) of three independent experiments performed in triplicate, using the prism software program (integrated Graphpad software, version 3).
(§3) Cell lines were used to measure the cell growth effects of the compounds using the MTT assay. This colorimetric assay is depend on the conversion of the yellow tetrazolium bromide (MTT) to a purple formazan derivative by mitochondrial succinate dehydrogenase in living cells. Cell lines were cultured in RPMI-1640 medium supplemented with 10% fetal bovine serum. The antibiotics added were 100 units/ml penicillin and 100 µg/ml streptomycin at 37 °C in a 5% CO2 incubator. Cell lines were seeded in a 96-well plates at a density of 1.0x10^4 cells/well and cultured at 37 °C for 48 h under 5% CO2. After incubation, the cells were treated with different concentrations of compounds and incubated for 24 hr. After 24 hr of drug treatment, 20 µl of MTT solution at 5 mg/ml was added to each well and incubated for 4 hr. 100 µl of dimethyl sulfoxide (DMSO) was added into each well to dissolve the purple formazan formed. The colorimetric assay was measured and recorded at absorbance of 570 nm using a plate reader (EXL 800, USA). Relative cell viability (%) was calculated as (A570 of treated sample/A570 of untreated sample) x 100 [36, 37].

[2] = system: HepG2 cell line; assay: MTT assay, HepG2 cell line; format: cell-based, human; conditions: MTT, 24 hr treatment, in % (unit assumed); for Cytotoxicity at 5 µg/l: HepG2, 5 µg/l; for Cytotoxicity at 10 µg/l: HepG2, 10 µg/l; for Cytotoxicity at 20 µg/l: HepG2, 20 µg/l
Procedure: as §1, §2, §3

[3] = system: HCT-116 cell line; assay: MTT assay, HCT-116 cell line; format: cell-based, human; conditions: for Cytotoxicity at 5 µg/l: HCT116, 5 µg/l; for Cytotoxicity at 5 µg/l / Cytotoxicity at 10 µg/l / Cytotoxicity at 20 µg/l: MTT, 24 hr treatment, in % (unit assumed); for Cytotoxicity at 10 µg/l: HCT116, 10 µg/l; for Cytotoxicity at 20 µg/l: HCT116, 20 µg/l
Procedure: as §1, §2, §3

Structure (SMILES) | melting point | IC50 ([3]; Homo sapiens, HCT-116, HCT116, MTT, read-out: IC50 (drug concentration that inhibited 50% of cell proliferation)) | Cytotoxicity at 5 µg/l [1] | Cytotoxicity at 10 µg/l [1] | Cytotoxicity at 20 µg/l [1] | Cytotoxicity at 5 µg/l [2] | Cytotoxicity at 10 µg/l [2] | Cytotoxicity at 20 µg/l [2] | Cytotoxicity at 5 µg/l [3] | Cytotoxicity at 10 µg/l [3] | Cytotoxicity at 20 µg/l [3]
Cc1cc(C)n2nc3c(c2n1)C(=O)NC(=O)C3 [Compound 4a, 2,4-Dimethylpyrido[4ʹ,3ʹ:3,4]pyrazolo[1,5-a]pyrimidine-8,10(7H,9H)-diones] | 330 °C | – | 35.61 | 74.99 | 84.71 | 15.91 | 60.95 | 82.16 | 56.23 | 71.78 | 84.77
O=C1Cc2nn3c(-c4ccccc4)cc(-c4ccccc4)nc3c2C(=O)N1 [Compound 4b, 2,4-Diphenylpyrido[4ʹ,3ʹ:3,4]pyrazolo[1,5-a]pyrimidine-8,10(7H,9H)-dione] | 300 °C | – | 22.19 | 55.85 | 70.37 | 38.14 | 43.81 | 76.43 | 7.31 | 21.33 | 66.23
Cc1cc(C)n2nc3c(c2n1)C(=O)NC(=O)C3=Cc1ccccc1 [Compound 7a, 7-Benzylidene-2,4-dimethylpyrido[4ʹ,3ʹ:3,4]pyrazolo[1,5-a]pyrimidine-8,10(7H,9H)-dione] | 240 °C | – | 30.13 | 45.66 | 66.12 | 38.17 | 42.56 | 76.04 | 50.82 | 84.52 | 91.78
Cc1cc(C)n2nc3c(c2n1)C(=O)NC(=O)C3=Cc1ccc(Cl)cc1 [Compound 7c] | 260 °C | 4.07 ng/mL (≈ 0.0115 µM) | 40.12 | 69.00 | 92.48 | 35.08 | 41.65 | 67.89 | 50.56 | 68.21 | 68.85
O=C1NC(=O)c2c(nn3c(-c4ccccc4)cc(-c4ccccc4)nc23)C1=Cc1ccccc1 [Compound 7k, 7-Benzylidene-2,4-diphenylpyrido[4ʹ,3ʹ:3,4]pyrazolo[1,5-a]pyrimidine-8,10(7H,9H)-dione] | 275 °C | – | 36.19 | 55.16 | 71.12 | 41.84 | 88.59 | 90.19 | 39.48 | 46.55 | 62.92

The next lines start with results.

melting point | IC50 ([3]; Homo sapiens, HCT-116, HCT116, MTT, read-out: IC50 (drug concentration that inhibited 50% of cell proliferation)) | Structure (SMILES) | Cytotoxicity at 5 µg/l [1] | Cytotoxicity at 10 µg/l [1] | Cytotoxicity at 20 µg/l [1] | Cytotoxicity at 5 µg/l [2] | Cytotoxicity at 10 µg/l [2] | Cytotoxicity at 20 µg/l [2] | Cytotoxicity at 5 µg/l [3] | Cytotoxicity at 10 µg/l [3] | Cytotoxicity at 20 µg/l [3]
300 °C | – | O=C1NC(=O)c2c(nn3c(O)cc(-c4ccccc4)nc23)C1=NNc1ccccc1 [Compound 16e, 4-Hydroxy-2-phenyl-7-(2-phenylhydrazono)pyrido[4ʹ,3ʹ:3,4]pyrazolo[1,5-a]pyrimidine-8,10(7H,9H)-dione] | – | – | – | – | – | – | – | – | –
320 °C | – | Cc1ccc(NN=C2C(=O)NC(=O)c3c2nn2c(O)cc(-c4ccccc4)nc32)cc1 [Compound 16f, 4-Hydroxy-2-phenyl-7-(2-(p-tolyl)hydrazono)pyrido[4ʹ,3ʹ:3,4]pyrazolo[1,5-a]pyrimidine-8,10(7H,9H)-dione] | – | – | – | – | – | – | – | – | –
323 °C | – | COc1ccc(NN=C2C(=O)NC(=O)c3c2nn2c(O)cc(-c4ccccc4)nc32)cc1 [Compound 16g, 4-Hydroxy-7-(2-(4-methoxyphenyl)hydrazono)-2-phenylpyrido[4ʹ,3ʹ:3,4]pyrazolo[1,5-a]pyrimidine-8,10(7H,9H)-dione] | – | – | – | – | – | – | – | – | –
330 °C | – | O=C1NC(=O)c2c(nn3c(O)cc(-c4ccccc4)nc23)C1=NNc1ccc(Cl)cc1 [Compound 16h, 7-(2-(4-Chlorophenyl)hydrazono)-4-hydroxy-2-phenylpyrido[4ʹ,3ʹ:3,4]pyrazolo[1,5-a]pyrimidine-8,10(7H,9H)-dione] | – | – | – | – | – | – | – | – | –
